# Experimental data taken from the Kinase Knowledgebase extract (Sharma et al. 2016).
# Target: CDK2 (human) (UniProt P24941)
# Test: Enzyme Assay
row,Compound,IC50
1,COc1ccc(NC(=O)c2ccc(C(=O)Nc3ccc4nccnc4c3)s2)c(C)c1,≥ 40 µM
2,O=C(Nc1ccc(C(=O)Nc2ccc(-n3cncn3)cc2)o1)c1ccccc1,≥ 40 µM
3,Cc1cc(N2CCN(C)CC2)ccc1NC(=O)c1ccc(C(=O)Nc2ccc(-n3cncn3)cc2)s1,≤ 1 µM
4,O=C(Nc1ccc(-n2cncn2)cc1)c1ccc(C(=O)Nc2ccc3c(c2)C(=O)OC3)s1,≥ 40 µM
5,CCCCN(C)C(=O)c1ccc(C(=O)Nc2ccc(-n3cncn3)cc2)s1,≥ 40 µM
6,COc1ccc(NC(=O)c2ccc(C(=O)Nc3ccc(-n4cncn4)cc3)s2)c(C)c1,≤ 1 µM
7,Cc1cc(N2CCNCC2)ccc1NC(=O)c1ccc(C(=O)Nc2ccc(-n3cncn3)cc2)s1,≤ 1 µM
8,Cc1cc(N[C@H]2CCNC2)ccc1NC(=O)c1ccc(C(=O)Nc2ccc(-n3cncn3)cc2)s1,≤ 1 µM
9,O=C(Nc1ccc(-n2cncn2)c(F)c1)c1ccc(C(=O)Nc2ccccc2OCc2ccncc2)s1,≥ 40 µM
10,Cc1ccccc1NC(=O)c1ccc(C(=O)Nc2ccc(-n3cncn3)cc2)s1,≤ 1 µM
11,COc1ccc(NC(=O)c2ccc(C(=O)Nc3ccc(-n4cncn4)c(F)c3)s2)c(C)c1,≤ 1 µM
12,COC(=O)c1ccc(NC(=O)c2ccc(C(=O)Nc3ccc(OC)cc3C)s2)cc1,≥ 40 µM
13,COc1ccc(C(=O)Nc2ccc(C(=O)Nc3ccc(-n4ccnc4)cc3)o2)c(C)c1,≥ 40 µM
14,COc1ccc(NC(=O)c2ccc(C(=O)Nc3ccc(-n4cncn4)cc3)s2)cc1Cl,1 to 40 µM
15,COc1ccc(C(=O)Nc2ccc(C(=O)Nc3ccc(-c4nc[nH]n4)c(F)c3)s2)c(C)c1,≤ 1 µM
16,O=C(Nc1ccc(-n2cncn2)cc1)c1ccc(C(=O)N[C@@H]2CCNC2)s1,≥ 40 µM
17,CN(C(=O)c1ccc(C(=O)Nc2ccc(-n3cncn3)cc2)s1)C1CCCCC1,≤ 1 µM
18,COc1ccc(NC(=O)c2ccc(C(=O)Nc3ccc(-c4nc[nH]n4)c(F)c3)s2)c(C)c1,≤ 1 µM
19,CN1CCC(NC(=O)c2ccc(C(=O)Nc3ccc(-n4cncn4)c(F)c3)o2)CC1,≥ 40 µM

# Next, values leading:
row,IC50,Compound
1,≥ 40 µM,O=C(Nc1ccc(-n2cncn2)cc1)c1ccc(NC(=O)C2CCCCC2)o1
2,≥ 40 µM,O=C(NCCc1ccccn1)c1ccc(C(=O)Nc2ccc(-n3cncn3)cc2)s1
3,1 to 40 µM,O=C(Nc1ccccc1)c1ccc(C(=O)Nc2ccc(-n3cncn3)cc2)o1
4,≥ 40 µM,COc1ccc(NC(=O)c2ccc(C(=O)Nc3ccc4nc(C)ccc4c3)s2)c(C)c1
5,≥ 40 µM,O=C(Nc1ccc(-n2cncn2)cc1)c1ccc(C(=O)Nc2ccc3c(c2)OCO3)s1
6,1 to 40 µM,Cc1cc(CN(C)C)ccc1NC(=O)c1ccc(C(=O)Nc2ccc(-n3cncn3)cc2)s1
7,≤ 1 µM,O=C(Nc1ccc(-n2cncn2)c(F)c1)c1ccc(C(=O)NC2CCCCC2)o1
8,≥ 40 µM,COc1ccc(C(=O)Nc2ccc(C(=O)N3CCC(Oc4cnccn4)CC3)o2)c(C)c1
9,≥ 40 µM,O=C(Nc1ccc(-n2cncn2)cc1)c1ccc(C(=O)N[C@@H]2CCc3ccccc32)s1
10,≥ 40 µM,O=C(Nc1ccc(-n2cncn2)cc1)c1ccc(C(=O)N2CCCC(c3ccccc3)C2)s1 (centres undefined)
11,≤ 1 µM,O=C(Nc1ccc(-n2cncn2)cc1)c1ccc(NC(=O)C2CCCCC2)s1
12,≤ 1 µM,COc1ccc(NC(=O)c2ccc(C(=O)Nc3ccc(-n4cncn4)cc3)o2)c(C)c1
13,≥ 40 µM,Cc1ccccc1C(=O)Nc1ccc(C(=O)Nc2ccc(-n3cncn3)cc2)o1
14,≥ 40 µM,COc1ccc(C(=O)Nc2ccc(C(=O)N3CCC(c4ccncc4)C3)s2)c(C)c1 (centres undefined)
15,≤ 1 µM,C[C@H](NC(=O)c1ccc(C(=O)Nc2ccc(-n3cncn3)c(F)c2)o1)C1CCCCC1
16,≥ 40 µM,COc1ccc(NC(=O)c2ccc(C(=O)Nc3ccc(Cn4ccnc4)cc3)s2)c(C)c1
17,1 to 40 µM,Cn1nc(-c2ccccc2)cc1NC(=O)c1ccc(C(=O)Nc2ccc(-n3cncn3)cc2)s1
18,≥ 40 µM,Cc1cnc(NC(=O)c2ccc(C(=O)Nc3ccc(-n4cncn4)cc3)s2)s1
19,1 to 40 µM,COC(=O)c1cc(OC)ccc1NC(=O)c1ccc(C(=O)Nc2ccc(-n3cncn3)cc2)s1
20,≥ 40 µM,COc1ccc(NCc2ccc(C(=O)Nc3ccc(-n4cncn4)cc3)o2)c(C)c1
